Experimental data from US9018258B2, “Substituted 1-benzylcycloalkylcarboxylic acids and the use thereof” (Bayer Intellectual Property GmbH, priority 2010, dated 2015).

Tests used:
Assay type in all cases: cell-based
GAL4-PPARδ = biological target: T1, GAL4-PPARδ (Homo sapiens, UniProt Q03181); assay: Cellular PPAR transactivation assay, GAL4-PPARδ chimera in CHO-K1 cells
T1 construct: PPARδ (amino acids 138-442); expressed in transfected cells
T1 sequence (Q03181 138-441 limits assumed): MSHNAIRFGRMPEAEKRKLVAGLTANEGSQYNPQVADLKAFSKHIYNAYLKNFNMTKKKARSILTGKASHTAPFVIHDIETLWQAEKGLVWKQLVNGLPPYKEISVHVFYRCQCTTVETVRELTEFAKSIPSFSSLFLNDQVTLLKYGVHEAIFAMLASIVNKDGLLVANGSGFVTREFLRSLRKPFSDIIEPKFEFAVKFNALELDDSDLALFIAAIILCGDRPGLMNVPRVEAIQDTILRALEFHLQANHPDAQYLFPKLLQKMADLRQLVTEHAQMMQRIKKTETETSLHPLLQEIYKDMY
Excerpt: (§1) A cellular assay is used to test for potentially activating properties of the compounds according to the invention with respect to the three human isoforms of the peroxisome proliferator-activated receptors (PPARα, PPARγ and PPARδ).
(§2) Since mammalian cells contain different endogenous nuclear receptors which may complicate an unambiguous interpretation of the results, an established chimera system is used in which the respective ligand binding domain of the human PPAR isoforms is fused to the DNA binding domain of the yeast transcription factor GAL4. The resulting GAL4-PPARα, γ and δ chimeras are co-transfected and stably expressed in CHO cells having a reporter construct.
(§3) The GAL4-PPAR expression constructs contain the ligand binding domain of PPARα (amino acids 167-468), PPARγ (amino acids 203-506) and PPARδ (amino acids 138-442) which are PCR-amplified and cloned into the vector pcDNA3.1. The respective expression vectors already contain the GAL4 DNA binding domain (amino acids 1-147) of the vector pFC2-dbd (Stratagene). The reporter construct, which contains five copies of the GAL4 binding site upstream of a thymidine kinase promoter, expresses firefly luciferase (Photinus pyralis) following activation and binding of GAL4-PPARα, γ or δ.
(§4) The day before the test, CHO-K1 cells (chinese hamster ovary; ATCC CCL-61) each stably expressing one of the above-described GAL4-PPAR chimeras and the luciferase reporter gene construct are sown in medium [Optimem (GIBCO) with 2% activated carbon-purified foetal calf serum (Hyclone), 1.35 mM sodium pyruvate (GIBCO) and 0.2% sodium bicarbonate (GIBCO)] in a density of 1×10^3 cells in 96-well microtitre plates (Greiner) and kept in a cell incubator (96% atmospheric humidity, 5% v/v CO2, 37° C.). On the test day, the substances to be tested are taken up in the medium mentioned above, but without addition of calf serum, and added in various concentrations to the cells. After a stimulation period of 6 h, the luciferase activity is measured using a video camera. The relative light units measured give, as a function of the substance concentration, a sigmoidal stimulation curve. The EC50 values are calculated using the computer programme GraphPad PRISM (Version 3.02). The maximum effect of a test substance in the respective PPAR assay is determined as efficacy in percent in comparison to an appropriate reference compound whose maximum effect is defined as 100%.
(§5) The reference compound selected here was the compound 2-(3-{[(2-chloro-4-propoxybenzoyl)-amino]methyl}-4-ethoxybenzyl)tetrahydrofuran-2-carboxylic acid [Example 73 of EP 1 452 521-A1] which is described in the prior art as a potent pan-PPAR agonist.

GAL4-PPARγ = biological target: T2, GAL4-PPARγ (Homo sapiens, UniProt P37231); assay: Cellular PPAR transactivation assay, GAL4-PPARγ chimera in CHO-K1 cells
T2 construct: PPARγ (amino acids 203-506); expressed in transfected cells
T2 sequence (P37231 203-505 limits assumed): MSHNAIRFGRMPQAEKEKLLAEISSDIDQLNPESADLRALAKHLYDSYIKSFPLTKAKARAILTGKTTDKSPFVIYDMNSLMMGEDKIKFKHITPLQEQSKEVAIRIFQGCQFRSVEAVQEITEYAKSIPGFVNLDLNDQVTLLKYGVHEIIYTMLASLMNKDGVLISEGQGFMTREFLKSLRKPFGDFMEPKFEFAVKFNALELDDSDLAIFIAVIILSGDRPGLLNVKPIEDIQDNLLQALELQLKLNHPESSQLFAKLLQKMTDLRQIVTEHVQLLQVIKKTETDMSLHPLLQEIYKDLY
Excerpt: as §1, §2, §3, §4, §5

GAL4-PPARα = biological target: T3, GAL4-PPARα (Homo sapiens, UniProt Q07869); assay: Cellular PPAR transactivation assay, GAL4-PPARα chimera in CHO-K1 cells
T3 construct: expressed in transfected cells
T3 sequence (Q07869 167-468): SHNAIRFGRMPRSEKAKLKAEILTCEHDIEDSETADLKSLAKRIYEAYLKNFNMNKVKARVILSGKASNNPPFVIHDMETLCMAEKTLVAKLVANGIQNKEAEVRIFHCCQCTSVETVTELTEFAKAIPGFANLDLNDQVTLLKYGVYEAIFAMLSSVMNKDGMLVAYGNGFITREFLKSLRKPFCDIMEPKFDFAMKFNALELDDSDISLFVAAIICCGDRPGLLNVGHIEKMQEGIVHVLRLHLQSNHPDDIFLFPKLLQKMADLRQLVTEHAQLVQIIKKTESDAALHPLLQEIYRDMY
Excerpt: as §1, §2, §3, §4, §5

sGC = biological target: T4, sGC (Rattus norvegicus, UniProt P20595); assay: Action at a recombinant guanylate cyclase reporter cell line (CHO reporter cell); settings: CHO reporter cell in vitro
T4 construct: expressed in transfected cells; host or cells: CHO reporter cell
T4 sequence (P19686 whole entry partner): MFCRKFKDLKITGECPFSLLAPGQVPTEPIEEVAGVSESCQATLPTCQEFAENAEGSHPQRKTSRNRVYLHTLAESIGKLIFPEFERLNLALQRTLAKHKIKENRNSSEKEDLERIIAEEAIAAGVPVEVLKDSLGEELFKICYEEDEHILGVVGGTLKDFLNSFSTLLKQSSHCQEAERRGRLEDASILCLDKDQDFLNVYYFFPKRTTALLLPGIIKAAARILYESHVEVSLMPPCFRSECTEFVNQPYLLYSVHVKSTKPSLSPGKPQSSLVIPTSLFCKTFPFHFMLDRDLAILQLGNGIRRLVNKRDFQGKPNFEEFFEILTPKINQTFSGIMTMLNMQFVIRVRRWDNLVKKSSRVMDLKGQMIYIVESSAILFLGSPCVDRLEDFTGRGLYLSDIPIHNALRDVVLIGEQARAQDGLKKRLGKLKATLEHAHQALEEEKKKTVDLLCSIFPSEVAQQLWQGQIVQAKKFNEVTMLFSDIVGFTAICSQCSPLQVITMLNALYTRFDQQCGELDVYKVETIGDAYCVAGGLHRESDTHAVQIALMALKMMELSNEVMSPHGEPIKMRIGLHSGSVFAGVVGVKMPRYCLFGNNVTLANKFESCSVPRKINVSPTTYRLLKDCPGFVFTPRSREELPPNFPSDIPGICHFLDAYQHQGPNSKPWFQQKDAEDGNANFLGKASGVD
T4 sequence (P20595 whole entry): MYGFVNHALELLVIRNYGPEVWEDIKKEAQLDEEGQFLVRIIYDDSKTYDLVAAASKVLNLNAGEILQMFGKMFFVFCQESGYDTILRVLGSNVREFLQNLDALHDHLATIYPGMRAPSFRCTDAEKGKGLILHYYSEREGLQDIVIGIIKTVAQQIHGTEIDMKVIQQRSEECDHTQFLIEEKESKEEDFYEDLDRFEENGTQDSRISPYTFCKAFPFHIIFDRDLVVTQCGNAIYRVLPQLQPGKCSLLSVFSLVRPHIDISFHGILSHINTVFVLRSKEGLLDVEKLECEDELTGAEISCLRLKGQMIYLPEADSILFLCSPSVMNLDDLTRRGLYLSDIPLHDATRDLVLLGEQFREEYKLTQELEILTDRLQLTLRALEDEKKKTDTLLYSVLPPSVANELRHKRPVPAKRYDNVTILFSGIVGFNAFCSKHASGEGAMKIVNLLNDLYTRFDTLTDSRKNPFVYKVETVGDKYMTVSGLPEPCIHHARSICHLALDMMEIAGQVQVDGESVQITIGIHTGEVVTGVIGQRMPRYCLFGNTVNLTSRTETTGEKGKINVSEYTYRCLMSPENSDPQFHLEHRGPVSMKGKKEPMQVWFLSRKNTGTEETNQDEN
Experimental: The cellular action of the compounds according to the invention is determined at a recombinant guanylate cyclase reporter cell line, as described in F. Wunder et al., Anal. Biochem. 339, 104-112 (2005).

[1] = CHO-K1 cells, luciferase reporter, 6 h stimulation

Row | SMILES | MEC (minimum effective concentration), sGC-activating activity in the CHO reporter cell (sGC) | other results
1 | COc1ccc(CC2(C(=O)O)CC2)cc1CNC(=O)c1ccc(Cl)cc1Cl [Example 11 of EP 1 452 521-A1, 1-(3-{[(2,4-dichlorobenzoyl)amino]methyl}-4-methoxybenzyl)cyclopropanecarboxylic acid, reference compound] | – | Emax (GAL4-PPARδ; CHO-K1, maximum effect relative to reference compound (Example 73 of EP 1 452 521-A1 = 100%), read-out: PPARδ efficacy): 10%; EC50 (GAL4-PPARδ; [1]): > 1000 nM; Emax (GAL4-PPARγ; CHO-K1, maximum effect relative to reference compound (Example 73 of EP 1 452 521-A1 = 100%), read-out: PPARγ efficacy): 0%; EC50 (GAL4-PPARγ; [1]): > 1000 nM; Emax (GAL4-PPARα; CHO-K1, maximum effect relative to reference compound (Example 73 of EP 1 452 521-A1 = 100%), read-out: PPARα efficacy): 0%; EC50 (GAL4-PPARα; [1]): > 1000 nM; Effect in the cellular PPAR transactivation test (in words) (GAL4-PPARα; statement covers the PPARα, PPARγ and PPARδ test): virtually ineffective
2 | C[C@H]([C@H](C(=O)Nc1ccc(Cl)c(CC2(C(=O)O)CC2)c1F)c1ccc(Cl)cc1)C(F)(F)F [Example 28, 1-(6-chloro-3-{[(2S,3R)-2-(4-chlorophenyl)-4,4,4-trifluoro-3-methylbutanoyl]amino}-2-fluorobenzyl)cyclopropanecarboxylic acid] | 3 nM | –
3 | O=C(Nc1cc(CC2(C(=O)O)CC2)ccc1F)C(c1ccc(Cl)cc1)C1CCC(F)(F)C1 (stereo not drawn) [Example 34, 1-(3-{[(4-chlorophenyl)(3,3-difluorocyclopentyl)-acetyl]amino}-4-fluorobenzyl)cyclopropane-carboxylic acid] | 10 nM | –
4 | O=C(Nc1cc(CC2(C(=O)O)CC2)ccc1Cl)C(c1ccc(Cl)cc1)C1CCC(F)(F)C1 (stereo not drawn) [Example 35, 1-(3-{[(4-chlorophenyl)(3,3-difluorocyclopentyl)-acetyl]amino}-4-chlorobenzyl)cyclopropane-carboxylic acid] | 10 nM | –
5 | CC(C)c1ccc([C@@H](C(=O)Nc2cc(CC3(C(=O)O)CC3)ccc2F)[C@@H](C)C(F)(F)F)cc1 [Example 37, 1-(4-fluoro-3-{[(2S,3R)-4,4,4-trifluoro-2-(4-isopropylphenyl)-3-methylbutanoyl]amino}-benzyl)cyclopropanecarboxylic acid] | 0.1 nM | –
6 | C[C@H]([C@H](C(=O)Nc1cc(CC2(C(=O)O)CC2)ccc1F)c1ccc(C(C)(C)C)cc1)C(F)(F)F [Example 39, 1-(3-{[(2S,3R)-2-(4-tert-butylphenyl)-4,4,4-trifluoro-3-methylbutanoyl]amino}-4-fluorobenzyl)cyclopropanecarboxylic acid] | 0.3 nM | –
7 | C[C@H]([C@H](C(=O)Nc1cc(CC2(C(=O)O)CC2)ccc1Cl)c1ccc(C(F)(F)F)cc1)C(F)(F)F [Example 41, 1-[4-chloro-3-({(2S,3R)-4,4,4-trifluoro-3-methyl-2-[4-(trifluoromethyl)phenyl]butanoyl}amino)-benzyl]cyclopropanecarboxylic acid] | 1 nM | –
8 | CC(C(C(=O)Nc1cc(CC2(C(=O)O)CC2)ccc1Cl)c1ccc(CC(F)(F)F)cc1)C(F)(F)F (stereo not drawn) [Example 46, 1-[4-chloro-3-({4,4,4-trifluoro-3-methyl-2-[4-(2,2,2-trifluoroethyl)phenyl]butanoyl}amino)-benzyl]cyclopropanecarboxylic acid] | 1 nM | –
9 | Cc1cc(C(C(=O)Nc2cccc(CC3(C(=O)O)CC3)c2)C(C)C(F)(F)F)ccc1Cl (stereo not drawn) [Example 49, 1-(3-{[2-(4-chloro-3-methylphenyl)-4,4,4-trifluoro-3-methylbutanoyl]amino}benzyl)-cyclopropanecarboxylic acid] | 30 nM | –
10 | C[C@H]([C@H](C(=O)Nc1c(Cl)ccc(CC2(C(=O)O)CC2)c1F)c1ccc(Cl)cc1)C(F)(F)F [Example 52, 1-(4-Chloro-3-{[(2S,3R)-2-(4-chlorophenyl)-4,4,4-trifluoro-3-methylbutanoyl]amino}-2-fluorobenzyl)cyclopropanecarboxylic acid] | 10 nM | –
11 | C=Cc1ccc([C@@H](C(=O)Nc2cc(CC3(C(=O)O)CC3)ccc2F)[C@@H](C)C(F)(F)F)cc1 [Example 63, (+)-1-(4-Fluoro-3-{[(2S,3R)-4,4,4-trifluoro-3-methyl-2-(4-vinylphenyl)butanoyl]amino}benzyl)-cyclopropanecarboxylic acid] | 0.3 nM | –
12 | C[C@H]([C@H](C(=O)Nc1cc(CC2(C(=O)O)CC2(F)F)ccc1Cl)c1ccc(Cl)cc1)C(F)(F)F (stereo partly drawn) [Example 69, 1-(4-Chloro-3-{[(2S,3R)-2-(4-chlorophenyl)-4,4,4-trifluoro-3-methylbutanoyl]amino}benzyl)-2,2-difluorocyclopropanecarboxylic acid] | 3 nM | –
13 | C[C@H]([C@H](C(=O)Nc1cc(CC2(C(=O)O)CC2)ccc1C1CC1)c1ccc(Cl)cc1)C(F)(F)F [Example 97, 1-(3-{[(2S,3R)-2-(4-chlorophenyl)-4,4,4-trifluoro-3-methylbutanoyl]amino}-4-cyclopropyl-benzyl)cyclopropanecarboxylic acid] | 10 nM | –
14 | CCC(c1ccc(Cl)c(NC(=O)[C@H](c2ccc(Cl)cc2)[C@@H](C)C(F)(F)F)c1)C1(C(=O)O)CC1 (stereo partly drawn) [Example 98, 1-[1-(4-Chloro-3-{[(2S,3R)-2-(4-chlorophenyl)-4,4,4-trifluoro-3-methylbutanoyl]amino}phenyl)-propyl]cyclopropanecarboxylic acid] | 0.3 nM | –
15 | C[C@H]([C@H](C(=O)Nc1cc(C(C)(O)C2(C(=O)O)CC2)ccc1Cl)c1ccc(Cl)cc1)C(F)(F)F (stereo partly drawn) [Example 111, 1-[1-(4-chloro-3-{[(2S,3R)-2-(4-chlorophenyl)-4,4,4-trifluoro-3-methylbutanoyl]amino}phenyl)-1-hydroxyethyl]cyclopropanecarboxylic acid] | 30 nM | –
